Test system: human duodenum monolayer culture
Assay: Sustained inhibition of apical acid secretion in human organoid monolayer cell cultures (duodenum)
Type: cell-based
Settings: 1 μM apical, inhibition of apical acid secretion vs DMSO
Method: Basal media (BM) consisted of advanced DMEM/F12 containing 10 mM HEPES Invitrogen, 15630-080), 1:100 Glutamax (Invitrogen, 35050-061), and 1:100 penicillin/streptomycin (Invitrogen, 15140-122). Supplemented basal media (SBM) contained 1:100 N2 (Invitrogen, 17502-048), 1:50 B27 (Invitrogen, 12587-010), 1 mM N-acetylcysteine (Sigma, A9165), and 10 nM [Leu15]-gastrin I (Sigma, G9145). Growth factors used included 50 ng per mL mouse EGF (Peprotech, 315-09), 100 ng per mL mouse noggin (Peprotech, 250-38), 500 ng per mL human R-spondin 1 (R&D, 4645-RS), 100 ng per mL mouse Wnt-3a (R&D, 1324-WN), 20 μM. Y-27632 (Tocris, 1254), 10 mM nicotinamide (Sigma, N0636), 500 nM A83-01 (Tocris, 2939), 10 μM SB202190 (Tocris, 1264). Transwells were 0.4 μm pore polyester membrane 24-well Transwell inserts (Corning). Cultures were incubated at 37° C. in 5% CO2.
Each human ileum monolayer culture well was washed twice with fresh SBM on the apical side on day 6 before compound dosing. All compound stocks were 10 mM dissolved in DMSO. Each compound stock was individually mixed with fresh SBM to reach final compound concentration 1 μM and dosed only on the apical side of the monolayer (total volume 200 μl). DMSO at the equivalent concentration was used as the vehicle control. Duplicate wells were dosed for each compound. On day 8, apical media pH was measured by pH electrode, to determine the ability of example compounds to produce sustained inhibition of NHE3 activity in a human monolayer culture system by preventing proton secretion into the apical compartment.
Human duodenum organoids were cultured in WENRNAS (Wnt, EGF, noggin, R-spondin1, Nicotinamide, A83-01, SB202190) and typically grown for 7-12 days before being used to plate monolayer cultures. On day 0, organoid cultures embedded in Matrigel were treated with TrypLE Express to break organoids into small pieces and/or single cells. The cells were resuspended to 0.5×10^6 cells/mL in SBM containing WENRAY (Wnt, EGF, noggin, R-spondin1, A83-01, Y-27632). Following this step, 200 μL of cell suspension was plated into the apical side of a 24-well Transwell (100,000 cells/well) and 600 μL of SBM with WENRAY was added to the basolateral side. Duodenum cells were differentiated with ENA (EGF, noggin, A83-01) on day 3. The color of apical compartment turns from pink or orange to yellow due to the increase in NHE3 expression after differentiation.

Which “% inhibition (duodenum)” value does the source give for “3-[2-(2-[2-[(4-[[(1S,2S)-4,6-Dichloro-2-[(3R)-3-[methyl(propan-2-yl)amino]piperidin-1-yl]-2,3-dihydro-1H-inden-1-yl]oxy]benzene) sulfonamido]ethoxy]ethoxy)ethyl]-1-[4-([[2-(2-[2-[(4-[[(1S,2S)-4,6-dichloro-2-[(3R)-3-[methyl(propan-2-yl)amino]piperidin-1-yl]-2,3-dihydro-1H-inden-1-yl]oxy]benzene)sulfonamido]ethoxy]ethoxy)ethyl]carbamoyl]amino)butyl]urea; bis(trifluoroacetic acid) [Example 78]” here?
Its value is “C (>70%)”.

Biological target: T1, NHE3 (Homo sapiens, UniProt P48764)
T1 construct: expressed in transfected cells
T1 sequence (P48764 26-834): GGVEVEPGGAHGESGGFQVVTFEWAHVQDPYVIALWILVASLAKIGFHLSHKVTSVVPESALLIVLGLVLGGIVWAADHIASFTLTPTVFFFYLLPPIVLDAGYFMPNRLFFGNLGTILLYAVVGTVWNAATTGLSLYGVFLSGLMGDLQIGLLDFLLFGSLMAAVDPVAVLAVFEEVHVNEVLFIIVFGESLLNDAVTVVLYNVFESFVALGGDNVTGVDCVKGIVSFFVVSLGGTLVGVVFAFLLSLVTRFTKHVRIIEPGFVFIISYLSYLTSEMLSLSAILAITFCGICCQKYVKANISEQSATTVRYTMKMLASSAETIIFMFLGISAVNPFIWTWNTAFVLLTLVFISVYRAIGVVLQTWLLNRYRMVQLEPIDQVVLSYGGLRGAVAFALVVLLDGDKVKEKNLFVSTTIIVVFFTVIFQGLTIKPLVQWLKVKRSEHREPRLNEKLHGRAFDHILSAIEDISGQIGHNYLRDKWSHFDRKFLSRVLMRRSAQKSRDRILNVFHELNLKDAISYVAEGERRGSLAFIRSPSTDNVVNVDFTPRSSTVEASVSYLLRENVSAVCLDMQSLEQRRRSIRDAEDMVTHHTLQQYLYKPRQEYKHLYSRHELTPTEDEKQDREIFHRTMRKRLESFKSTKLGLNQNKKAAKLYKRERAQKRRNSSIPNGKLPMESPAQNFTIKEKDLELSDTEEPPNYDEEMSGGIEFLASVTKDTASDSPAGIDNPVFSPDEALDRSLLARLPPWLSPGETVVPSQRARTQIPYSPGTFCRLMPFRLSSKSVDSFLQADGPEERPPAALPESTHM
T1 sequence (Q99653 2-195 partner limits assumed): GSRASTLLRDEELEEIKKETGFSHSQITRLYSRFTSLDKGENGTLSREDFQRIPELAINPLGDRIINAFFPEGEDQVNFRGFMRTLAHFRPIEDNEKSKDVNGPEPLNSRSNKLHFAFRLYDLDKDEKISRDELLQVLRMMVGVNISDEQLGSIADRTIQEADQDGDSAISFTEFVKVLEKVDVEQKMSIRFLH
Assay: Cell-based assay of NHE-3 activity (persistent inhibition), human
Settings: human Persistence, 60 min incubation then washout
How it was run: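 Persistent inhibition: compound (0-30 μM, 60 min, RT, NaCl-HEPES pH 7.4) removed before assay. Human NHE3/NHERF2 PS120 cells were then BCECF-loaded during NH4Cl pulse (30 min, 37 °C), acidified in Na+-free buffer, and Na+ added 10 min after washout; antiport measured as initial fluorescence-ratio change per minute.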

How did the “% inhibition” value turn out when “3-[2-(2-[2-[(4-[[(1S,2S)-4,6-Dichloro-2-[(3R)-3-[methyl(propan-2-yl)amino]piperidin-1-yl]-2,3-dihydro-1H-inden-1-yl]oxy]benzene) sulfonamido]ethoxy]ethoxy)ethyl]-1-[4-([[2-(2-[2-[(4-[[(1S,2S)-4,6-dichloro-2-[(3R)-3-[methyl(propan-2-yl)amino]piperidin-1-yl]-2,3-dihydro-1H-inden-1-yl]oxy]benzene)sulfonamido]ethoxy]ethoxy)ethyl]carbamoyl]amino)butyl]urea; bis(trifluoroacetic acid) [Example 78]” was run?
The value was “C (>70%)”.

Which results are given for `Cc1cc(Cl)cc2c1C[C@H](N1CCC[C@@H](N(C)C)C1)[C@H]2Oc1ccc(S(=O)(=O)NCCOCCOCCNC(=O)NCCCCNC(=O)NCCOCCOCCNS(=O)(=O)c2ccc(O[C@H]3c4cc(Cl)cc(C)c4C[C@@H]3N3CCC[C@@H](N(C)C)C3)c(F)c2)cc1F` [Example 30, 3-[2-(2-[2-[(4-[[(1S,2S)-6-Chloro-2-[(3R)-3-(dimethylamino)piperidin-1-yl]-4-methyl-2,3-dihydro-1H-inden-1-yl]oxy]-3-fluorobenzene)sulfonamido]ethoxy]ethoxy)ethyl]-1-[4-([[2-(2-[2-[(4-[[(1S,2S)-6-chloro-2-[(3R)-3-(dimethylamino)piperidin-1-yl]-4-methyl-2,3-dihydro-1H-inden-1-yl]oxy]-3-fluorobenzene)sulfonamido]ethoxy]ethoxy)ethyl]carbamoyl]amino)butyl]urea; bis(trifluoroacetic acid)]?
% inhibition: C (>70%); pIC50: C (NHE3 pIC50 > 7)

Which results are given for `Cc1cc(S(=O)(=O)N[C@@H]2CCN(CCOCCNC(=O)NCCCCNC(=O)NCCOCCN3CC[C@@H](NS(=O)(=O)c4ccc(O[C@H]5c6cc(Cl)cc(Cl)c6C[C@@H]5N(C)C)c(C)c4)C3)C2)ccc1O[C@H]1c2cc(Cl)cc(Cl)c2C[C@@H]1N(C)C` [Example 53, 3-(2-[2-[(3R)-3-[(4-[[(1S,2S)-4,6-Dichloro-2-(dimethylamino)-2,3-dihydro-1H-inden-1-yl]oxy]-3-methylbenzene)sulfonamido]pyrrolidin-1 yl]ethoxy]ethyl)-1-(4-[[(2-[2-[(3R)-3-[(4-[[(1S,2S)-4,6-dichloro-2-(dimethylamino)-2,3-dihydro-1H-inden-1-yl]oxy]-3-methylbenzene)sulfonamido]pyrrolidin-1-yl]ethoxy]ethyl)carbamoyl]amino]butyl)urea]?
% inhibition: C (>70%); pIC50: C (NHE3 pIC50 > 7)

For `Cc1cc(O[C@H]2c3cc(Cl)cc(Cl)c3C[C@@H]2N(C)C)c(F)cc1S(=O)(=O)NCCOCCOCCNC(=O)NCCCCNC(=O)NCCOCCOCCNS(=O)(=O)c1cc(F)c(O[C@H]2c3cc(Cl)cc(Cl)c3C[C@@H]2N(C)C)cc1C` [Example 88, 3-[2-(2-[2-[(4-[[(1S,2S)-4,6-Dichloro-2-(dimethylamino)-2,3-dihydro-1H-inden-1-yl]oxy]-5-fluoro-2-methylbenzene)sulfonamido]ethoxy]ethoxy)ethyl]-1-[4-([[2-(2-[2-[(4-[[(1S,2S)-4,6-dichloro-2-(dimethylamino)-2,3-dihydro-1H-inden-1-yl]oxy]-5-fluoro-2-methylbenzene)sulfonamido]ethoxy]ethoxy)ethyl]carbamoyl]amino)butyl]urea], which “% inhibition” value is on record?
The value was “C (>70%)”.

And the pIC50?
The pIC50 was “C (NHE3 pIC50 > 7)”.

For `N#Cc1cc(Cl)cc2c1C[C@H](N1CCNCC1)[C@H]2Oc1ccc(S(=O)(=O)N2CCC(NC(=O)CCCNC(=O)NCCCCNC(=O)NCCCC(=O)NC3CCN(S(=O)(=O)c4ccc(O[C@H]5c6cc(Cl)cc(C#N)c6C[C@@H]5N5CCNCC5)cc4)CC3)CC2)cc1` [Example 120, N^1,N^18-Bis(1-([4-([(1S,2S)-6-chloro-4-cyano-2-(piperazin-1-yl)-2,3-dihydro-1H-inden-1-yl]oxy)phenyl]sulfonyl)piperidin-4-yl)-6,13-dioxo-5,7,12,14-tetraazaoctadecanediamide], which “% inhibition” value is on record?
The value was “C (>70%)”.

And the pIC50?
The pIC50 was “C (NHE3 pIC50 > 7)”.

Which results are given for `C[C@@H]1CN([C@H]2Cc3c(C#N)cc(Cl)cc3[C@@H]2Oc2ccc(S(=O)(=O)N[C@H]3CCN(CCOCCNC(=O)NCCCCNC(=O)NCCOCCN4CC[C@H](NS(=O)(=O)c5ccc(O[C@H]6c7cc(Cl)cc(C#N)c7C[C@@H]6N6CCN[C@H](C)C6)cc5)C4)C3)cc2)CCN1` [Example 132, 4-([(1S,2S)-6-Chloro-4-cyano-2-[(R)-3-methylpiperazin-1-yl]-2,3-dihydro-1H-inden-1-yl]oxy)-N—[(S)-1-(20-[(S)-3-([4-([(1S,2S)-6-chloro-4-cyano-2-[(R)-3-methylpiperazin-1-yl]-2,3-dihydro-1H-inden-1-yl]oxy)phenyl]sulfonamido)pyrrolidin-1-yl]-7,14-diaxo-3,18-dioxa-5,8,13,15-tetraazaicosyl)pyrrolidin-3-yl]benzenesulfonamide; bis(trifluoroacetic acid)]?
% inhibition: C (>70%); pIC50: C (NHE3 pIC50 > 7)

`C[C@@H]1CN([C@H]2Cc3c(C#N)cc(Cl)cc3[C@@H]2Oc2ccc(S(=O)(=O)N[C@@H]3CCN(CCOCCNC(=O)NCCCCNC(=O)NCCOCCN4CC[C@@H](NS(=O)(=O)c5ccc(O[C@H]6c7cc(Cl)cc(C#N)c7C[C@@H]6N6CCN[C@H](C)C6)cc5)C4)C3)cc2)CCN1` [Example 133, 4-([(1S,2S)-6-Chloro-4-cyano-2-[(R)-3-methylpiperazin-1-yl]-2,3-dihydro-1H-inden-1-yl]oxy)-N—[(R)-1-(20-[(R)-3-([4-([(1S,2S)-6-chloro-4-cyano-2-[(R)-3-methylpiperazin-1-yl]-2,3-dihydro-1H-inden-1-yl]oxy)phenyl]sulfonamido)pyrrolidin-1-yl]-7,14-dioxo-3,18-dioxa-6,8,13,15-tetraazaicosyl)pyrrolidin-3-yl]benzenesulfonamide; bis(trifluoroacetic acid)] was tested. Which “% inhibition” value did it give?
The value was “C (>70%)”.

And the pIC50?
Its pIC50 is “C (NHE3 pIC50 > 7)”.

`N#Cc1cc(Cl)cc2c1C[C@H](N1CCNCC1)[C@H]2Oc1ccc(S(=O)(=O)N[C@H]2CCN(C(=O)CCCNC(=O)NCCCCNC(=O)NCCCC(=O)N3CC[C@H](NS(=O)(=O)c4ccc(O[C@H]5c6cc(Cl)cc(C#N)c6C[C@@H]5N5CCNCC5)cc4)C3)C2)cc1` [Example 143, 4-([(1S,2S)-6-Chloro-4-cyano-2-(piperazin-1-yl)-2,3-dihydro-1H-inden-1-yl]oxy)-N—[(S)-1-(18-[(S)-3-([4-([(1S,2S)-6-chloro-4-cyano-2-(piperazin-1-yl)-2,3-dihydro-1H-inden-1-yl]oxy)phenyl]sulfonamido)pyrrolidin-1-yl]-6,13,18-trioxo-5,7,12,14-tetraazaoctadecanoyl)pyrrolidin-3-yl]benzenesulfonamide] was tested. Which “% inhibition” value did it give?
The value was “C (>70%)”.

And the pIC50?
Its pIC50 is “C (NHE3 pIC50 > 7)”.

Reference: patent US11242337B2, “Compounds useful for treating gastrointestinal tract disorders” (Ardelyx, Inc., priority 2017, dated 2022)
